From patent US9381164B2, “Silk nanospheres and microspheres and methods of making same” (TRUSTEES OF TUFTS COLLEGE, priority 2009, dated 2016)
Counter-ions that a name gives are not always drawn. Like-named read-outs stand apart in the source and are kept apart here.

Tests used:
[1] = Cumulative drug release from silk spheres in PBS; assay type: physicochemical; conditions: for In vitro drug release: Microspheres, PVA blend film
Procedure: Silk spheres loaded with model drugs as described in Example 5 were lyophilized. 10 mg of lyophilized silk spheres were suspended in 1 ml of PBS buffer, pH 7.4. The samples were incubated at room temperature under slow shaking condition. A cumulative drug release profile at each different time point (1, 4, 8.5, 24, 48, 120, 192, 342 hr) was determined by following the steps of (a) centrifuging the samples at 12,000 rpm for 10 min with a Sigma ISS-113 microcentrifuge (Sigma Chemical Co., St. Louis, Mo.); (b) carefully transferring the supernatants to empty tubes, subjecting the collected supernatants to the absorbance measurement at a wavelength of 555 nm, calculating the amount of model drug based on a standard curve, and comparing the data at the current time point with the original amounted drug loaded in the spheres; (c) suspending the precipitated pellets in 1 ml of PBS buffer; and (d) repeating the steps of (a)-(c) at each time point to obtain a cumulative drug release profile. For each model drug, at least three samples were prepared in order to obtain a standard deviation.

[2] = Drug loading in silk spheres (supernatant absorbance at 555 nm); assay type: physicochemical; conditions: drug/silk 1:100; spheres from 1.0% silk/4.0% PVA blend
Procedure: Tetramethylrhodamine conjugated bovine serum albumin (TMR-BSA, M.w.=66,000 Da), tetramethylrhodamine conjugated dextran (TMR-Dextran, M.w.=10,000 Da), and rhodamine B (RhB, M.w.=479 Da) were used as model drugs to study the drug loading in silk nano- and micro spheres. Stock solutions of drugs were prepared with a concentration of 5 mg/ml in PBS buffer, pH 7.4, and stored at −20° C. Certain amount of stock solution of drugs was added to silk fibroin solution, before the silk fibroin solution was prepared into silk nano- and micro spheres, to reach to a drug/silk ratio of 1:100 (weight ratio). After mixing, the drug loaded silk fibroin solution was used to blend with PVA solution following the steps described in the Example 2, without the sonication treatment. A 5 wt % of silk and PVA concentrations and a silk/PVA ratio of 1:4 were used in this example. At this concentration, the silk/PVA film with a silk/PVA ratio of 1/4 can generate silk spheres with narrower size distribution, perhaps because the blend film is easier to dissolve in water forming homogeneous sphere suspension.
To determine the amount of drug loading in silk spheres, the supernatants collected from the centrifugation steps were subjected to absorbance measurement at 555 nm. The amount of drug was calculated based on a standard curve obtained at the same condition. The amount of drug in silk spheres was calculated from the difference between the total amount used and the amount remained in the supernatants. For each drug loading, at least three samples were prepared in order to obtain a standard deviation. The pellets from the last step of centrifugation were suspended in 2 ml of PBS buffer, pH 7.4, and used for the following confocal microscopy and drug release studies in Example 6.

[3] = cited from earlier work
[4] = Microspheres, Vibrational splitting of laminar jet

## CCN(CC)c1ccc2c(-c3ccccc3C(=O)O)c3ccc(=[N+](CC)CC)cc-3oc2c1.[Cl-] [RhB, rhodamine B]
[1]
  In vitro drug release: >4 weeks
[1]; PBS pH 7.4, room temperature
  initial burst release: about 1%
[2]
  loading efficiency: approximately 95%

## O=C(O)c1ccccc1O [Salicylic acid]
[3]; [4]
  In vitro drug release: 1 days

## CC(C)NCC(O)COc1cccc2ccccc12 (centres unmarked) [propranolol hydrochloride]
[3]; [4]
  In vitro drug release: 20 days

## Cn1c(=O)c2[nH]cnc2n(C)c1=O [theophylline]
[3]; Layer-by-layer coatings, Coat drug tablet
  In vitro drug release: >0.33 days

## Dextran
[1]
  In vitro drug release: 7 days

## IGF-I: insulin like growth factor loaded in silk delivery systems
[3]; [4]
  In vitro drug release: >7 weeks
[3]; Porous sponge, Drug encapsulated
  In vitro drug release: >4 weeks

## Tetramethylrhodamine conjugated bovine serum albumin [TMR-BSA]
[1]
  In vitro drug release: >4 weeks
[1]; PBS pH 7.4, room temperature
  initial burst release: about 1%
[2]
  loading efficiency: about 51%

## tetramethylrhodamine conjugated dextran [TMR-dextran]
[1]; PBS pH 7.4, room temperature, within 2 weeks
  total loading released within 2 weeks: more than 60%
[2]
  loading efficiency: approximately 1.2%
